Calls of active or inactive are those of the source.
Experiments:
[1] = molecular target: T1, Small ubiquitin-related modifier 1 (Homo sapiens, UniProt P63165); experiment: inhibitors of SUMO1 peptide binding, dose response, biochemical, fluorescence polarization, uHTS hits (AID 624382); format: functional; conditions: read-out: IC50_Mean
[2] = molecular target: T1, Small ubiquitin-related modifier 1; experiment: inhibitors of SUMO1 partner interactions, dose response, biochemical, FRET (AID 624383); format: functional; conditions: read-out: IC50_Mean
[3] = molecular target: Photoreceptor-specific nuclear receptor (Homo sapiens, UniProt Q9Y5X4); format: functional, cell-based;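 further: CHO-S cells with Gal4-NCOR and VP16-NR2E3 two-hybrid luciferase reporter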
Fatty acid synthase [4] = molecular target: T2, Fatty acid synthase (Homo sapiens, UniProt P49327); experiment: FAS thioesterase domain inhibitors, dose response, biochemical, kinetic fluorescence intensity (AID 624326); format: functional;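 further: rate of fluorescence rise from hydrolysis of a fluorogenic O-methyl fluorescein ester substrate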
T2 sequence (P49327 whole entry, the tested form may be a part): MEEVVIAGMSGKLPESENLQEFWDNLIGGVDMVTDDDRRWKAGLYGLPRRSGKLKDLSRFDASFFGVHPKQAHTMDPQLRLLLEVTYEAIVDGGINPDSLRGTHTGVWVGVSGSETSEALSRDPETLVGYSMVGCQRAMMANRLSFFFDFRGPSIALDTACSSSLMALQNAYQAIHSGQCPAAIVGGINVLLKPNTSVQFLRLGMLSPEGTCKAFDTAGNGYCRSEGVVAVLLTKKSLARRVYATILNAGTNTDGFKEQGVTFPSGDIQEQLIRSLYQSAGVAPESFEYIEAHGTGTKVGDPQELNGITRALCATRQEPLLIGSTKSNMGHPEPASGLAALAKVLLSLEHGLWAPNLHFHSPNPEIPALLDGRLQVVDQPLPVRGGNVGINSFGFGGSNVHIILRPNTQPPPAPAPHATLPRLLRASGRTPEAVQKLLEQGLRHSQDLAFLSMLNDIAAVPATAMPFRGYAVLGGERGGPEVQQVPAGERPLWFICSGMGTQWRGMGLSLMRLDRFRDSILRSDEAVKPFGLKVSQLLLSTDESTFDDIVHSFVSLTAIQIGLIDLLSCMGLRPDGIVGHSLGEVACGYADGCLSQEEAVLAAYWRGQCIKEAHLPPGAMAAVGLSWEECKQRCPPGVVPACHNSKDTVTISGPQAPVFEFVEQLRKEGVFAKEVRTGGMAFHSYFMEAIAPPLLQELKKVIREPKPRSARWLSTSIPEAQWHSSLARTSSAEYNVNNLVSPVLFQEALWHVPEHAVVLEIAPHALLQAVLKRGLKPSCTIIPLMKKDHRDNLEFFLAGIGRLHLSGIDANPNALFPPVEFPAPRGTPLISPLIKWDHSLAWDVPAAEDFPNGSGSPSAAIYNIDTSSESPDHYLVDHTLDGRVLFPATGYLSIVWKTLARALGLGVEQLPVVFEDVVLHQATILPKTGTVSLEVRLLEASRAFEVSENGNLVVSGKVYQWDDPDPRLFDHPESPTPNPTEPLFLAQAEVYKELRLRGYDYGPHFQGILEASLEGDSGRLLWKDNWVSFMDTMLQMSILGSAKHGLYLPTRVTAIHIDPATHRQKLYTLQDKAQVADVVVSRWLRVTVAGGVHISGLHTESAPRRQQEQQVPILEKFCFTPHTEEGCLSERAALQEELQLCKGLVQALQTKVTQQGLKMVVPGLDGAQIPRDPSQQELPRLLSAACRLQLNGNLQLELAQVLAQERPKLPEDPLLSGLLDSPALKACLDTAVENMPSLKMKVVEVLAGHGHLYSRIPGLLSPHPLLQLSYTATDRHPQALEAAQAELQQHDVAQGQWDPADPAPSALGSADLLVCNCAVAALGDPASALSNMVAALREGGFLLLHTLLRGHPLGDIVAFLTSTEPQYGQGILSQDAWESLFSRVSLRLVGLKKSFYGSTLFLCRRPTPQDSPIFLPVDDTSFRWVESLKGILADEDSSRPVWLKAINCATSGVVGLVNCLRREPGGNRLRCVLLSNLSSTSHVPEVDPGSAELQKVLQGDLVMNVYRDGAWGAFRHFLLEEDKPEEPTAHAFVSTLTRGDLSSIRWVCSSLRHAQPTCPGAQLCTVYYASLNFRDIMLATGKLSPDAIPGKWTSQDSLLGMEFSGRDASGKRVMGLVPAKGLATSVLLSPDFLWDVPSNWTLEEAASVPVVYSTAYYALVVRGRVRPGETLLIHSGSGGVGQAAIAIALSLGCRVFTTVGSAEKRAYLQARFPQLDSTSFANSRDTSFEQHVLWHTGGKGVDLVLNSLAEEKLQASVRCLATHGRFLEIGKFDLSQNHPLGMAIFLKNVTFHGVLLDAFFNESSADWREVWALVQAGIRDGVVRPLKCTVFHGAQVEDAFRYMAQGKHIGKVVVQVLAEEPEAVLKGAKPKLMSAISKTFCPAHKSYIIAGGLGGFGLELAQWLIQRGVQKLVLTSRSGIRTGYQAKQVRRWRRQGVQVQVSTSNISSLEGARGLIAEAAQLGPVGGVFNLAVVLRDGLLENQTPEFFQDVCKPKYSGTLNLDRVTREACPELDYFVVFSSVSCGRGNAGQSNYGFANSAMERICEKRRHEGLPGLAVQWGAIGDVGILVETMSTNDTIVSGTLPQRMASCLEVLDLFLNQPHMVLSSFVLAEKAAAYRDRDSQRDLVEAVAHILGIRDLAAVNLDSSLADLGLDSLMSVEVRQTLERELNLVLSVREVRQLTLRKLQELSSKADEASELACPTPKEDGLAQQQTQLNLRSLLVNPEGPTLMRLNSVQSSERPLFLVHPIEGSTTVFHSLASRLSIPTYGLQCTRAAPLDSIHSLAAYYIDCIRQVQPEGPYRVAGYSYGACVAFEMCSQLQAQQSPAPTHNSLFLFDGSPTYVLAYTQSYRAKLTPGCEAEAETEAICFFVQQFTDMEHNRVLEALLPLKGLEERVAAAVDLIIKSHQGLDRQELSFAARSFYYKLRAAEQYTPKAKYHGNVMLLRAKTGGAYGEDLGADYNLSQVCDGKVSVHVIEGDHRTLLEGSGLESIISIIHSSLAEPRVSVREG

Fatty acid synthase [5] = molecular target: T2, Fatty acid synthase; experiment: FAS thioesterase domain inhibitors, dose response, biochemical, endpoint fluorescence intensity, uHTS hits (AID 624327); format: functional;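 further: fluorescence from hydrolysis of an O-methyl fluorescein acyl ester substrate by the enzyme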
Paired box protein Pax-8 = Paired box protein Pax-8 (Homo sapiens, UniProt Q06710); experiment: inhibitors of PAX8-driven TPO luciferase reporter, dose response, RMG-I cells, cherry-pick (AID 687027); format: functional, cell-based;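 further: luciferase reporter driven by Pax8 target thyroperoxidase promoter measured by SteadyGlo luminescence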
Chain of Paired box protein Pax-8 (Q06710 whole entry): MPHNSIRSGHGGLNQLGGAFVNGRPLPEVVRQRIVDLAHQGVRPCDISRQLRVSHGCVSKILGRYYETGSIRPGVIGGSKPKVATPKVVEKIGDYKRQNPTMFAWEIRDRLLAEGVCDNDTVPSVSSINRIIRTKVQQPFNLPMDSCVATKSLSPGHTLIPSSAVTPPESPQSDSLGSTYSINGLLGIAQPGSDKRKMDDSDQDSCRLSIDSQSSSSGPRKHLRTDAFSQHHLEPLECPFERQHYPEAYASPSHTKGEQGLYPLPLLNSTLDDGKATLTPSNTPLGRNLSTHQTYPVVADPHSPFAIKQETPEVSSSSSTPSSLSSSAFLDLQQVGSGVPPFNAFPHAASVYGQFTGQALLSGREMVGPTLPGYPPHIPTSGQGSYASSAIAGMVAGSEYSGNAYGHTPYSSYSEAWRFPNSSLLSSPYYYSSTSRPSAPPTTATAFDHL

[6] = molecular target: 5-hydroxytryptamine receptor 5A (Homo sapiens, UniProt P47898); experiment: Counterscreen for agonists of OPRM1-OPRD1 heterodimerization: luminescence-based cell-based high throughput dose response assay to identify agonists of 5-hydroxytryptamine (serotonin) 5A receptor (HTR5A). [Related pubchem assays (depositor defined):AID504326, AID504355, AID504692, AID504904, AID504905]; format: functional
Chain of 5-hydroxytryptamine receptor 5A (P47898 whole entry): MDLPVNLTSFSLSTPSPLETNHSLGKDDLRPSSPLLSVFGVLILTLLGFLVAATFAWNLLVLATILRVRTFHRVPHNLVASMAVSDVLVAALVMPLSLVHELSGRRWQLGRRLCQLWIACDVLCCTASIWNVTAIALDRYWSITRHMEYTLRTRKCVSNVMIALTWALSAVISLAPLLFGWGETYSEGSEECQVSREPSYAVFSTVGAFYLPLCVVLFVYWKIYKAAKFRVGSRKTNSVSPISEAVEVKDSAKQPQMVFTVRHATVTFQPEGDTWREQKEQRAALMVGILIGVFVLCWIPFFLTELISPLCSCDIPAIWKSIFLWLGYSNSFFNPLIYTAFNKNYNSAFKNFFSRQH

[7] = molecular target: Delta-type opioid receptor (Homo sapiens, UniProt P41143); experiment: Counterscreen for agonists of heterodimerization of the mu 1 (OPRM1) and delta 1 (OPRD1) opioid receptors: Luminescence-based cell-based high throughput dose response assay to identify agonists of OPRD1 homodimerization. [Related pubchem assays (depositor defined):AID504326, AID504355, AID504692, AID504904, AID504905]; format: functional
Mu-type opioid receptor = Mu-type opioid receptor (Homo sapiens, UniProt P35372); experiment: Counterscreen for agonists of heterodimerization of the mu 1 (OPRM1) and delta 1 (OPRD1) opioid receptors: Luminescence-based cell-based high throughput dose response assay to identify agonists of OPRM1 homodimerization.; format: functional;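 further: U2OS cells expressing OPRM1 and beta-arrestin as split beta-galactosidase partners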
[8] = molecular target: T3, Hepatocyte nuclear factor 4-alpha (Homo sapiens, UniProt P41235); format: functional, cell-based;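 further: biochemical luminescence-based dose-response counterscreen measuring inhibition of HNF4 dimerization, run alongside a screen for blockers of ABHD5–perilipin-5 interaction; split luciferase complementation of HNF4 fusion proteins in cell lysate measuring dimerization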
T3 sequence (P41235 whole entry): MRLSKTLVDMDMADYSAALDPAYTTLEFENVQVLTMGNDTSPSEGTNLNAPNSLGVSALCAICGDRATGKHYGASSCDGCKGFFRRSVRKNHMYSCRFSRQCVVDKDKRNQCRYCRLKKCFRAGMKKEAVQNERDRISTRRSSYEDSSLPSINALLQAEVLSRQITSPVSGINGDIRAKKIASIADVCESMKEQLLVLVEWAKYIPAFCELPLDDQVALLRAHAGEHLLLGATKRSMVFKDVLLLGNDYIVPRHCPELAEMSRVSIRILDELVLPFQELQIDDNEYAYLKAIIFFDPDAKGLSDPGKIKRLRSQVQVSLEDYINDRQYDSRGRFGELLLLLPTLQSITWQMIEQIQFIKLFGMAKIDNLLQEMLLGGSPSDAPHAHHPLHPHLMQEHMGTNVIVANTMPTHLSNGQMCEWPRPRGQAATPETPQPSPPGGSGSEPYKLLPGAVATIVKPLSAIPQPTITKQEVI

[9] = molecular target: T4, Long-chain-fatty-acid--AMP ligase FadD28 (Mycobacterium tuberculosis, UniProt P9WQ59); experiment: Fluorescence polarization aasay to screen for inhibitors that compete for the binding of FadD28 to a bisubstrate Measured in Biochemical System Using Plate Reader - 2147-01_Inhibitor_Dose_CherryPick_Activity.; format: functional, Mycobacterium tuberculosis H37Rv
T4 sequence (P9WQ59 whole entry): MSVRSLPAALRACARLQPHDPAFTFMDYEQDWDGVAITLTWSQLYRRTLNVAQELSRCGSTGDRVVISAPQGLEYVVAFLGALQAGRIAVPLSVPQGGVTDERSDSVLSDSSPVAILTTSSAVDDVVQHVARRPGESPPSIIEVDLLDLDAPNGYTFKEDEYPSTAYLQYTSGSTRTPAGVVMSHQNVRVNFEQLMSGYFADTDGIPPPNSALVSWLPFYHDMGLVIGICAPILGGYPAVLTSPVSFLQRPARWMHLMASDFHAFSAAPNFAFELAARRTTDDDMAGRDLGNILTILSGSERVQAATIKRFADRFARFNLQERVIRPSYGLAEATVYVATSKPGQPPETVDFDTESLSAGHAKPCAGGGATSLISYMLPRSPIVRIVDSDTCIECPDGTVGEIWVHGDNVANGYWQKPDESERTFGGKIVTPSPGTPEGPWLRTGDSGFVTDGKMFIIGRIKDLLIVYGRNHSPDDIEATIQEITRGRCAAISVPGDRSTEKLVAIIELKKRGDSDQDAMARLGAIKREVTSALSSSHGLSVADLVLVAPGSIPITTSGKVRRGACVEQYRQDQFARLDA

[10] = Luminescence-based cell-based high throughput dose response assay to identify activators of the DAF-12 from the parasite S. stercoralis (ssDAF-12).; format: functional
[11] = molecular target: T5, Oxysterols receptor LXR-beta (Homo sapiens, UniProt P55055); experiment: LXR agonists, Gal4 luciferase reporter, dose response, counter-screen for ssDAF-12 agonist project, cell-based, luminescence, HEK293, S. stercoralis campaign (AID 720737); format: functional; conditions: read-out: IC50 (the source's name)
T5 sequence (P55055 whole entry): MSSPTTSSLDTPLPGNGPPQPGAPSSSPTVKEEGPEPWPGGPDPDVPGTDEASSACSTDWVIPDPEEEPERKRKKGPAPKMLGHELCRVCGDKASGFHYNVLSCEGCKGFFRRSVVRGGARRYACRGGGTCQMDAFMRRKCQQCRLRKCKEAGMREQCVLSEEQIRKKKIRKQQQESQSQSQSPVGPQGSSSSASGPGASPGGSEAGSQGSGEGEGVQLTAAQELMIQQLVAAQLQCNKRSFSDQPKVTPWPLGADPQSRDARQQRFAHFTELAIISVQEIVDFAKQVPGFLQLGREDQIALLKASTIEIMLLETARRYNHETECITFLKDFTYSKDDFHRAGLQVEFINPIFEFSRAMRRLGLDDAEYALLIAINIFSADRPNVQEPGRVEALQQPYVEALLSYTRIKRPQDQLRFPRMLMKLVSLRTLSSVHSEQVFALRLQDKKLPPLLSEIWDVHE

[12] = cytotoxicity in HPDE-C7 cells, cell-based, fluorescence, HTS (AID 430); format: functional; conditions: Homo sapiens
[13] = cytotoxicity in KRAS-transformed pancreatic duct cells, primary screen, cell-based, fluorescence, HTS (AID 431); format: functional; conditions: Homo sapiens;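 further: cell line used: HPDE-C7K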
P388/ADR = experiment: cells; format: functional; conditions: Mus musculus
SN12K1 = experiment: cells; format: functional; conditions: Homo sapiens, SN12K1
P388 = experiment: cells; format: functional; conditions: Mus musculus, P388
[14] = molecular target: Voltage-gated inwardly rectifying potassium channel KCNH2 (Homo sapiens, UniProt Q12809); experiment: hERG protection from proarrhythmic block, potency, dose response, cell-based, thallium flux (AID 2121); format: ADME
Chain of Voltage-gated inwardly rectifying potassium channel KCNH2 (Q12809 whole entry): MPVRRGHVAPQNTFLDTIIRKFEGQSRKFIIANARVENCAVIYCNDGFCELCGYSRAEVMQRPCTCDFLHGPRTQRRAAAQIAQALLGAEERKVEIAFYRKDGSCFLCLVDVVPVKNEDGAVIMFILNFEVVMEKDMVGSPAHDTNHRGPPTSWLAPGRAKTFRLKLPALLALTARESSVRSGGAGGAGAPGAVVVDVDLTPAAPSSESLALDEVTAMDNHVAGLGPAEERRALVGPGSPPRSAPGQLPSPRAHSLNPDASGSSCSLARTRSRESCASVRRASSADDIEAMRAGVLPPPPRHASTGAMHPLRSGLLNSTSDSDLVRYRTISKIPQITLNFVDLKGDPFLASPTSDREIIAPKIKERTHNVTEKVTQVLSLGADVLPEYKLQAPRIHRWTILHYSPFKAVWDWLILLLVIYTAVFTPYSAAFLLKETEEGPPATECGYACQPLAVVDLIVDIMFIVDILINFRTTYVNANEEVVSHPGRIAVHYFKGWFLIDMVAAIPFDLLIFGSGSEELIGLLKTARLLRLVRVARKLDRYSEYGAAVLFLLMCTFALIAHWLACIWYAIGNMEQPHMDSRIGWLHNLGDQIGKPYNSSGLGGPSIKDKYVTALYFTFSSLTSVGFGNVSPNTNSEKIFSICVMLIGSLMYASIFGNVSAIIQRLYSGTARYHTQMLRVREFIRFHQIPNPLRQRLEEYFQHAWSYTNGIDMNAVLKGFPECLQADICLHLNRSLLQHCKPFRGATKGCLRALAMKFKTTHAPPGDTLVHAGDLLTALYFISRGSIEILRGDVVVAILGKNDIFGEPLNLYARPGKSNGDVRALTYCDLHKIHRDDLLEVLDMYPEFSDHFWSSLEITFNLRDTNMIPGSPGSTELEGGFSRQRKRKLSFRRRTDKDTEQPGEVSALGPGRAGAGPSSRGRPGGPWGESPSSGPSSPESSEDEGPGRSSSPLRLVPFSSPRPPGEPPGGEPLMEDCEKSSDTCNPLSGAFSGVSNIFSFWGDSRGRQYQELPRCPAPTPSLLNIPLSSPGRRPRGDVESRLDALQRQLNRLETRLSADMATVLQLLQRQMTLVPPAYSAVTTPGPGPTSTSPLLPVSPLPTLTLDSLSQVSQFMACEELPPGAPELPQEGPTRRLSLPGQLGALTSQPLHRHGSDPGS

cells [15] = format: functional, cell-based
cells [16] = format: functional, cell-based; remark: listed apart in the source
[17] = molecular target: E3 ubiquitin-protein ligase Mdm2 (Homo sapiens, UniProt Q00987); experiment: enhancers of MDM2-luciferase reporter signal, concentration-effect titration, project on inhibitors of MDM2 ubiquitin ligase, cellular assay, luminescent readout, 384-well plate format (AID 1394); format: functional;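 further: MDM2 E3 inhibitors raise luminescence so EC50 is for signal enhancement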
Chain of E3 ubiquitin-protein ligase Mdm2 (Q00987 whole entry): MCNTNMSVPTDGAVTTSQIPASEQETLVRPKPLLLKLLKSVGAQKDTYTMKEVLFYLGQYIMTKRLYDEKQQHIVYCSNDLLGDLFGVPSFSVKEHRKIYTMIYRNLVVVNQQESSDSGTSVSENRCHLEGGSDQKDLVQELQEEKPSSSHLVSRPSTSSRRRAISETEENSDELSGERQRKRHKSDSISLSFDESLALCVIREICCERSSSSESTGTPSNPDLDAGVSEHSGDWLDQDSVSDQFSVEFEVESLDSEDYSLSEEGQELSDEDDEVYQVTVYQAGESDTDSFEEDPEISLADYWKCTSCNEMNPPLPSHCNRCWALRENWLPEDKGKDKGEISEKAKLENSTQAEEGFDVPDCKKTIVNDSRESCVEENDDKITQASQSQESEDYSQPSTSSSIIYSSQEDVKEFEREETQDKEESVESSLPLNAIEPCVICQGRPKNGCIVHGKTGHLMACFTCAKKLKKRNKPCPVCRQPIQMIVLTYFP

fMet-Leu-Phe receptor = molecular target: T6, fMet-Leu-Phe receptor (Homo sapiens, UniProt P21462); experiment: FPR ligands, dose response (AID 519); format: functional
T6 sequence (P21462 whole entry): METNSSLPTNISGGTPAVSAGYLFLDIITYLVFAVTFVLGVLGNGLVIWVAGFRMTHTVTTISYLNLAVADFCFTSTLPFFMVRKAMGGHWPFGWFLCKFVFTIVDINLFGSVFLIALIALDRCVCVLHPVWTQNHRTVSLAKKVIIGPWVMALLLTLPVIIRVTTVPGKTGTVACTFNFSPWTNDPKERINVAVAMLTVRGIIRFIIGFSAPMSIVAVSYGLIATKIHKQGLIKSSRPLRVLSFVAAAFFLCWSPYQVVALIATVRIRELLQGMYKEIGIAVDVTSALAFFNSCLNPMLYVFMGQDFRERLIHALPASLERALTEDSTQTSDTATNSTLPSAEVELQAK

[18] = cytotoxicity in OVCAR8 ovarian cancer cells, dose response, PAX8 project, cell-based, plate reader, dry powder samples (AID 743197); format: functional; conditions: OVCAR-8
[19] = IGROV1 ovarian cancer cell cytotoxicity, dose response, PAX8 inhibitor project, plate reader, dry powder samples (AID 743043); format: functional, cell-based; conditions: IGROV-1
[20] = NIH:OVCAR-3 ovarian cancer cell cytotoxicity, dose response, PAX8 inhibitor project, plate reader, dry powder samples (AID 743044); format: functional, cell-based
[21] = non-specific cell cytotoxicity, dose response, cytotoxicity control for PAX8 inhibitor project, plate reader, dry powder samples (AID 743021); format: functional, cell-based
[22] = growth suppression of PTEN-null colon cells, dose response, cell-based, HCT116 PTEN knockout (AID 1047); format: functional;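 further: HCT116 colon tumor cells with PTEN knocked out; cells exposed to compound for 60 hours before readout; potency for loss of cell viability measured by luminescence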
[23] = cytotoxicity in HEK-293T cells, dose response, cytotoxicity control for BCR NF-kB inhibitor project, luminescence, B-cell screen hits (AID 489021); format: functional, cell-based;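 further: HEK-293T cells carrying an NF-kB luciferase reporter; cells exposed to compound for about 14 hours before viability readout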
[24] = growth suppression of beta-catenin-knockout colon cells, dose response, cell-based, HCT116, human colon tumor (AID 1045); format: functional;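 further: HCT116 colon tumor cells with beta catenin knocked out; cells exposed to compound for 60 hours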

T1 sequence (P63165 whole entry): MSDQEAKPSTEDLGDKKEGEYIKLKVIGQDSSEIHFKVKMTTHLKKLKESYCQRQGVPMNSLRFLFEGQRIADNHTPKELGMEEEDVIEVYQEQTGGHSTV

CCOC(=O)c1ccc(NC(=O)c2c(N)n(Cc3ccccc3)c(=O)[nH]c2=O)cc1
IC50 [1]: > 66.6 µM (inactive)
IC50 [2]: 1.43 µM (active)

CSC(=Nc1ccccc1)N=C(SCc1ccccc1)N(C)C
IC50 [3]: 2.61 µM (active)
IC50 (Fatty acid synthase [4]): 1.04 µM (active)
IC50 (Fatty acid synthase [5]): 1.37 µM (active)
AC50 (Paired box protein Pax-8): 4.55 µM (active)
EC50 [6]: > 92.4 µM (inactive)
EC50 [7]: > 92.4 µM (inactive)
EC50 (Mu-type opioid receptor): > 92.4 µM (inactive)
IC50 [8]: 3.95 µM (active)

CC(=O)N1CCN(Cc2nc3cc(NC(=O)NC4CCCCC4)ccc3n2C)CC1
AC50 [9]: 81 µM (active)

CC(c1nccs1)N(C)C(=O)CCc1nnc(Cc2c[nH]c3ccccc23)o1 (stereo not drawn)
IC50 [10]: > 67.5 µM (inactive)
EC50 [11]: > 67.5 µM (inactive)

COC(=O)c1sc2nc(-c3ccccc3)nc(N3CCN(C)CC3)c2c1C
EC50 [12]: > 20 µM (not active)
EC50 [13]: > 20 µM (not active)

CCCCCCCC/C=C\CCCCCCCC(=O)O [OLEIC ACID]
GI50 (P388/ADR): 78.9 µM (inactive)
GI50 (SN12K1): 101 µM (inactive)
GI50 (P388): 115 µM (inactive)
EC50 [14]: 10.4 µM (active)

CCCN(CCC)C(S)=Nc1cc(C(=O)OC)ccc1C(=O)OC
EC50 (cells [15]): > 350 µM (not active)
EC50 (cells [16]): > 350 µM (not active)
EC50 [17]: 343 µM (not active)

CCCOc1ccc(C2C(C(=O)c3ccco3)=C(O)C(=O)N2CCCn2ccnc2)cc1 (stereo not drawn)
Ki (fMet-Leu-Phe receptor): > 66.7 µM (inactive)

Cc1ccc(CNC(=O)C(Cc2ccccc2)NS(=O)(=O)c2cccs2)cc1 (stereo not drawn)
AC50 [9]: 58 µM (active)

OCCN1CCN(c2nc(-c3ccccc3)nc3c2oc2ccccc23)CC1
EC50 [12]: 7.2 µM (active)
EC50 [13]: 10.2 µM (active)

C[C@@H]1CCCCO[C@H](CN(C)C(=O)Nc2cccc3ccccc23)[C@H](C)CN([C@@H](C)CO)C(=O)c2cc(NS(=O)(=O)c3ccc(Cl)cc3)ccc2O1
AC50 [18]: 59.6 µM (active)
AC50 [19]: 51.8 µM (active)
AC50 [20]: 16.8 µM (active)
AC50 (Paired box protein Pax-8): 5.39 µM (active)
AC50 [21]: 55.2 µM (active)

O=C(Nc1cccnc1Cl)c1cc(-c2cccc(O)c2)on1
IC50 [1]: > 66.6 µM (inactive)
IC50 [2]: 8.84 µM (active)

CC1=CC(C)(C)Nc2ccc(OC(=O)c3ccco3)cc21
EC50 [22]: 7.39 µM (active)
EC50 [12]: 7.05 µM (active)
IC50 [23]: 44.7 µM (inactive)
EC50 [24]: 5.59 µM (active)
EC50 [13]: 6.79 µM (active)

COc1ccc(-c2cc(C(F)(F)F)nc(SCC(=O)NCc3cnn(C)c3C)n2)cc1OC
EC50 [17]: 16.3 µM (not active)

C=CCn1c(NC(=O)c2ccccc2)c(C#N)c2nc3ccccc3nc21
Ki (fMet-Leu-Phe receptor): > 66.7 µM (inactive)

CCOC(=O)Cc1csc(NC(=S)NC(=O)c2ccc(Cl)cc2)n1
IC50 [23]: > 80 µM (inactive)
EC50 [14]: 0.55 µM (active)

COc1ccc(-c2cn3cccnc3n2)cc1NC(=O)CC(C)C
Ki (fMet-Leu-Phe receptor): > 66.7 µM (inactive)
